Data on 22 molecules can be found in patent publication US6506766B1 (Abbott Laboratories, priority 1998, dated 2003).

Experiment [1] concerns the target T1, human glucocorticoid receptor-α [GRX] isoform (Homo sapiens, UniProt P04150).
T1 construct: host or cells: insect SF21 cells (baculovirus)
T1 sequence (P04150 1-777): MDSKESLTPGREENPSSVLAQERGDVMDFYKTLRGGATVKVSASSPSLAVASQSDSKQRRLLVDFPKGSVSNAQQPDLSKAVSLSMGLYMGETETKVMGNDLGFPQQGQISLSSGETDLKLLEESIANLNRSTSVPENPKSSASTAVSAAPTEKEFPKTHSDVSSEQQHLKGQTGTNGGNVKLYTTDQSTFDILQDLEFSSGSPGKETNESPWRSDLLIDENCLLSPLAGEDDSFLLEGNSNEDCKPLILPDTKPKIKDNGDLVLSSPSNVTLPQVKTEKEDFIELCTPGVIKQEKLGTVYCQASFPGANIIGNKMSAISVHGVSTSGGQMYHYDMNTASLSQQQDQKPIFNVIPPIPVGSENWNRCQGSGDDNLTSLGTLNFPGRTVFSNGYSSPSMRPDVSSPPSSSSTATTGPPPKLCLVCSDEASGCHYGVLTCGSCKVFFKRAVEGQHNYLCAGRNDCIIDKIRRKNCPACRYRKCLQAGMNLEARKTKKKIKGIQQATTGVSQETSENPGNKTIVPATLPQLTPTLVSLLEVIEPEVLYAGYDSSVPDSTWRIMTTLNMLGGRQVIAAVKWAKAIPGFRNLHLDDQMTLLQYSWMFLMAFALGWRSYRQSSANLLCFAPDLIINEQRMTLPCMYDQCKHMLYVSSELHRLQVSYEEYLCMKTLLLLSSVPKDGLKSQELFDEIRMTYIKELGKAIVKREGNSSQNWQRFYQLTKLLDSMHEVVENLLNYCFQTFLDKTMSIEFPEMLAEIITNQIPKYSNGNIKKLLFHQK
Briefly: Radioligand binding with human glucocorticoid receptor cytosol ([3H]-dexamethasone competition). The settings on record: GRX cytosol expressed in insect SF21 cells, [3H]-Dex ~0.9 nM, 4° C. overnight, Ki by Cheng-Prusoff, KL ~[…].

The target in experiment [2] is T2, human progesterone receptor-A [PRA] isoform (Homo sapiens, UniProt P06401).
T2 construct: host or cells: insect SF21 cells (baculovirus)
T2 sequence (P06401 1-769 isoform P06401-2): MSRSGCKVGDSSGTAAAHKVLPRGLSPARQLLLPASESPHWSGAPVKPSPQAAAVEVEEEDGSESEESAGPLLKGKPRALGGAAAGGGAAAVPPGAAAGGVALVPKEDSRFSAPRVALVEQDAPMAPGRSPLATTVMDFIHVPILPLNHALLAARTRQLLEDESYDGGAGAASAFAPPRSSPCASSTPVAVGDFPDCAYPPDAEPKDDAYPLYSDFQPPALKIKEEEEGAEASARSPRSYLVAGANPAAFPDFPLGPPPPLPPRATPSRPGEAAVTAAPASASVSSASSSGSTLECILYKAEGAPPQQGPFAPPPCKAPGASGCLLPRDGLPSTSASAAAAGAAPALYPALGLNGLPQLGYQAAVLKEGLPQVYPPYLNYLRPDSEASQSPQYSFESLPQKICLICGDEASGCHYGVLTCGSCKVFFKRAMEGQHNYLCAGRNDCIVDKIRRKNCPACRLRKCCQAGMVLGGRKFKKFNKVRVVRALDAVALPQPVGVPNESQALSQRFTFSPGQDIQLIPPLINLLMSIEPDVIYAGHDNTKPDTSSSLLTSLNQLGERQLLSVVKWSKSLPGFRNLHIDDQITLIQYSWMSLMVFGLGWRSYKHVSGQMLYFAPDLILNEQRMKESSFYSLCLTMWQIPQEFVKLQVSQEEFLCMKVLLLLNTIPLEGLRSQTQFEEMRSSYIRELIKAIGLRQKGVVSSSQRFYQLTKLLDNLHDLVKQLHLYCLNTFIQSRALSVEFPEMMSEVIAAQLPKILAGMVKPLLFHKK
Briefly: Radioligand binding with human progesterone receptor cytosol ([3H]-progesterone competition). The settings on record: PRA cytosol expressed in insect SF21 cells, [3H]Prog ~0.8 nM, 4° C. overnight; Ki by Cheng-Prusoff, KL ~4.5 nM; read-out: Ki (nM) PR.

Where two headings read alike, the source gives them in different places.

On to `CC1=CC(C)(C)Nc2ccc3c(c21)/C(=C/c1ccccn1)Oc1ccc(O)c(Cl)c1-3` [Example 368, Z-10-Chloro-9-hydroxy-5-(2-picolinylidenyl)-2,2,4-trimethyl-2,5-dihydro-1H-[1]benzopyrano[3,4-f]quinoline], for which the figures for the Ki in experiment [1] (read-out: Ki (nM) GR) and in experiment [2] were 0.21 nM and 61 nM, respectively.
In the same order, the values of `COc1c(O)ccc2c1-c1ccc3c(c1/C(=C/c1ccccn1)O2)C(C)=CC(C)(C)N3` [Example 369, Z-9-Hydroxy-10-methoxy-5-(2-picolinylidenyl)-2,2,4-trimethyl-2,5-dihydro-1H-[1]benzopyrano[3,4-f]quinoline] are 0.41 nM and 2530 nM.
The corresponding values for `COc1c(O)ccc2c1-c1ccc3c(c1/C(=C/c1ccc(F)cc1)O2)C(C)=CC(C)(C)N3` [Example 372, (Z)9-Hydroxy-10-methoxy-5-((4-fluorophenyl)methylene)-2,2,4-trimethyl-1H-2,5-dihydro-[1]benzopyrano[3,4-f]quinoline] are 1.8 nM and 164 nM.
In the same order, the values of `COc1c(O)ccc2c1-c1ccc3c(c1/C(=C/c1cccc(F)c1F)O2)C(C)=CC(C)(C)N3` [Example 373, (Z)-9-Hydroxy-10-methoxy-5-([2,3-difluorophenyl]methylene)-2,2,4-trimethyl-1H-2,5-dihydro-[1]benzopyrano[3,4-f]quinoline] are 3.1 nM and 279 nM.
In the case of `COc1c(O)ccc2c1-c1ccc3c(c1/C(=C/c1cccc(F)c1)O2)C(C)=CC(C)(C)N3` [Example 374, Z-5-(3-Fluorobenzylidenyl)-10-methoxy-9-hydroxy-2,2,4-trimethyl-2,5-dihydro-1H-[1]benzopyrano[3,4-f]quinoline], the Ki in experiment [1] (read-out: Ki (nM) GR) was found to be 9 nM; in experiment [2], 222 nM.
Turning to `CCC1Oc2ccc(O)c(OC)c2-c2ccc3c(c21)C(C)=CC(C)(C)N3` (centres unmarked) [Example 376, 9-Hydroxy-10-methoxy-5-ethyl-2,2,4-trimethyl-2,5-dihydro-1H-[1]benzopyrano[3,4-f]quinoline], the Ki in experiment [1] (read-out: Ki (nM) GR) was found to be 0.78 nM; in experiment [2], 156 nM.
In the same order, the values of `C=CCC1Oc2ccc(OC(=O)CCC(=O)N(CC)CC)c(OC)c2-c2ccc3c(c21)C(C)=CC(C)(C)N3` (centres unmarked) [Example 378, 2,5-Dihydro-9-(4-N,N-diethylamino-4-oxo-butanoyloxy)-10-methoxy-2,2,4-trimethyl-5-(2-propenyl)-1H-[1]benzopyrano[3,4-f]quinoline] are 1.1 nM and 440 nM.
The corresponding values for `C=CCC1Oc2ccc(OC(=O)CCC(=O)N3CCCCC3)c(OC)c2-c2ccc3c(c21)C(C)=CC(C)(C)N3` (centres unmarked) [Example 379, 2,5-Dihydro-9-(4-N-piperidino-4-oxo-butanoyloxy)-10-methoxy-2,2,4-trimethyl-5-(2-propenyl)-1H-[1]benzopyrano[3,4-f]quinoline] are 1.4 nM and 175 nM.
The corresponding values for `C=CCC1Oc2ccc(OC(=O)CCC(=O)N3CCOCC3)c(OC)c2-c2ccc3c(c21)C(C)=CC(C)(C)N3` (centres unmarked) [Example 380, 2,5-Dihydro-9-(4-N-morpholino-4-oxo-butanoyloxy)-10-methoxy-2,2,4-trimethyl-5-(2-propenyl)-1H-[1]benzopyrano[3,4-f]quinoline] are 1.2 nM and 204 nM.
`COc1c(OC(=O)CCC(=O)N(C)C)ccc2c1-c1ccc3c(c1C(c1cc(F)c(F)c(F)c1)O2)C(C)=CC(C)(C)N3` (centres unmarked) [Example 381, 2,5-Dihydro-9-(4-N,N-dimethylamino-4-oxo-butanoyloxy)-10-methoxy-2,2,4-trimethyl-5-(3,4,5-trifluorophenyl)-1H-[1]benzopyrano[3,4-f]quinoline]: the Ki in experiment [1] (read-out: Ki (nM) GR) was determined as 7.1 nM; in experiment [2] it was 9820 nM.
The corresponding values for `CC1=CC(C)(C)Nc2ccc3c(c21)C(c1cccs1)Oc1ccc(O)c(Cl)c1-3` (centres unmarked) [Example 383, 2,5-Dihydro-9-hydroxy-10-chloro-2,2,4-trimethyl-5-(2-thienyl)-1H-[1]benzopyrano[3,4-f]quinoline] are 4.8 nM and 46 nM.
Take `COc1c(O)ccc2c1-c1ccc3c(c1C(C1CCCC1)O2)C(C)=CC(C)(C)N3` (centres unmarked) [Example 384, 2,5-Dihydro-9-hydroxy-10-methoxy-2,2,4-trimethyl-5-cyclopentyl-1H-[1]benzopyrano[3,4-f]quinoline]: the Ki is 0.67 nM in experiment [1] (read-out: Ki (nM) GR) and 197 nM in experiment [2].
The corresponding values for `C=CCC1Oc2ccc(CO)c(OC)c2-c2ccc3c(c21)C(C)=CC(C)(C)N3` (centres unmarked) [Example 386, 2,5-Dihydro-9-hydroxymethyl-10-methoxy-2,2,4-trimethyl-5-allyl-1H-[1]benzopyrano[3,4-f]quinoline] are 6.5 nM and 105 nM.
The corresponding values for `C=CCCCC1Oc2ccc(O)c(OC)c2-c2ccc3c(c21)C(C)=CC(C)(C)N3` (centres unmarked) [Example 387] are 0.65 nM and 169 nM.
The corresponding values for `C=CCC1Oc2ccc(C(=O)OC)c(OC)c2-c2ccc3c(c21)C(C)=CC(C)(C)N3` (centres unmarked) [Example 388, 2,5-Dihydro-9-methylcarboxylate-10-methoxy-2,2,4-trimethyl-5-allyl-1H-[1]benzopyrano[3,4-f]quinoline] are 2.8 nM and 199 nM.
As for `C=C=CC1Oc2ccc(O)c(OC)c2-c2ccc3c(c21)C(C)=CC(C)(C)N3` (centres unmarked) [Example 389, 2,5-Dihydro-9-hydroxy-10-methoxy-2,2,4-trimethyl-5-allenyl-1H-[1]benzopyrano[3,4-f]quinoline], the Ki is 0.58 nM in experiment [1] (read-out: Ki (nM) GR) and 27.5 nM in experiment [2].
On to `COc1cccc2c1-c1ccc3c(c1[C@H]([C@H]1C=CCCC1)O2)C(C)=CC(C)(C)N3` [Example 392, (−)(5S,3′R)2,5-Dihydro-10-methoxy-2,2,4-trimethyl-5-(cyclohexen-3-yl)-1H-[1]benzopyrano[3,4-f]quinoline], for which the results for the Ki in experiment [1] (Ki (nM) GR) and in experiment [2] were 1.2 nM and 487 nM, respectively.
For `CC/C=C\CC1Oc2ccc(O)c(OC)c2-c2ccc3c(c21)C(C)=CC(C)(C)N3` (centres unmarked) [Example 394], the Ki in experiment [1] (read-out: Ki (nM) GR) stood at 0.89 nM; in experiment [2], 109 nM.
The corresponding values for `COc1c(O)ccc2c1-c1ccc3c(c1C(c1cccc(OC(C)=O)c1)O2)C(C)=CC(C)(C)N3` (centres unmarked) [Example 395, 2,5-Dihydro-9-hydroxy-10-methoxy-2,2,4-trimethyl-5-(3-acetoxyphenyl)-1H-[1]benzopyrano[3,4-f]quinoline] are 2.1 nM and 1210 nM.
The corresponding values for `CSCOc1cccc(C2Oc3cccc(OC(F)F)c3-c3ccc4c(c32)C(C)=CC(C)(C)N4)c1` (centres unmarked) [Example 396] are 6.3 nM and 2120 nM.
In the same order, the values of `COc1c(O)ccc2c1-c1ccc3c(c1C(c1cccc(O)c1)O2)C(C)=CC(C)(C)N3` (centres unmarked) [Example 398, 2,5-Dihydro-9-hydroxy-10-methoxy-2,2,4-trimethyl-5-(3-hydroxyphenyl)-1H-[1]benzopyrano[3,4-f]quinoline] are 6.7 nM and 1080 nM.
On to `COc1c(O)ccc2c1-c1ccc3c(c1C(c1cccc(OCSC)c1)O2)C(C)=CC(C)(C)N3` (centres unmarked) [Example 400, 2,5-Dihydro-9-hydroxy-10-methoxy-2,2,4-trimethyl-5-(3-(methylthiomethoxy)phenyl)-1H-[1]benzopyrano[3,4-f]quinoline], for which the Ki in experiment [1] (read-out: Ki (nM) GR) stood at 3.5 nM; in experiment [2] it was 5960 nM.
